PubChem BioAssay (NCI)
“And” between values parts separate entries of the source, which are not always exact repeats. Equal entries are not always repeated.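 In this assay, cells in 96-well plates receive the compound at five concentrations for 48 hours. Endpoints are linearly interpolated between the surrounding concentrations. The concentration for 50% growth inhibition is given as GI50. TGI denotes the concentration required for complete inhibition of growth.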

These compounds were tested on TK-10 renal (assay: NCI-60 cell line screen, 48 h).
For `COC1CCC2C(NS(=O)(=O)c3ccc(C)cc3)CCCC2O1` (stereo unspecified) (tested in a mixture with another compound), the TGI was > 34.5 µM.
`O=C1/C(=C/c2cccc([N+](=O)[O-])c2)COc2ccc(O)cc21` was tested, and the GI50 was 2.77 µM and the TGI was 9.11 µM.
`CCCCC(=O)OCC(=O)[C@]1(O)Cc2c(O)c3c(c(O)c2[C@@H](OC2CC(NC(=O)C(F)(F)F)C(O)C(C)O2)C1)C(=O)c1c(OC)cccc1C3=O` (stereo partly specified) gave a TGI of 15.1 µM.
With `C[C@]12CC[C@H](O)CC1=CC[C@@H]1C2CC[C@]2(C)C(=O)N(N)C(=O)CC12` (stereo partly specified) the TGI was > 100 µM.
`C=C(CN1CCN(c2ccc(Cl)cc2F)CC1)c1ccc(C(=O)Nc2ccccc2N)cc1` was tested, and the GI50 was 3.53 µM and the TGI was > 100 µM.
Work on `CC(C)=CC(=O)C1c2cccc(O)c2C(=O)c2c(O)cc(C)cc21` (stereo unspecified) yielded a TGI of 7.83 µM.
In the case of `COC(CN1C(=O)c2cccc3cccc(c23)C1=O)OC`, the TGI is reported as > 100 µM.
`O=C1C=C(Cl)C(=O)C(c2ccc(Cl)cc2)=C1` showed a TGI of 35.9 µM.
For `Cc1ccc2c(=O)cc(-c3ccc(F)cc3)[nH]c2n1`, the TGI was > 100 µM.
In the case of `CCOc1ccc(NC(=O)C(=O)CC(=O)c2c[n+](=O)c3cc(C)c(C)cc3n2[O-])cc1`, the TGI is reported as > 100 µM.
With `Cn1cc(C2=C(c3cn(C)c4ncccc34)C(=O)NC2=O)c2ccccc21` the GI50 was 10.8 µM and the TGI was > 25 µM.
With `O=C1C(Cl)=C(Nc2cccc(Cl)c2)C(=O)N1Cc1ccc(Cl)cc1Cl` the GI50 was 11.5 µM and the TGI was 31.7 µM.
`CC(=O)NNc1nc(C)c(C(=O)NNC(=O)C(=O)Nc2ccc(Cl)cc2)s1` was tested, and the TGI was > 100 µM.
`O=C(/C=C/C12c3ccccc3C(c3ccccc31)C1C(=O)NC(=O)C12)c1ccncc1` (stereo unspecified) was tested, and the GI50 was 2.61 µM and the TGI was 7.75 µM.
In the case of `CC1(C)CCc2c(c3c(c4c(=O)c(O)c(-c5ccc(O)cc5)oc24)OC(C)(C)CC3)O1`, the GI50 is reported as 36.6 µM and the TGI is reported as > 100 µM.
For `CC12CCC(O)CC1CCC1C2CCC2(C)C(C3=CC(=O)OC3)CCC12O` (stereo unspecified), the TGI was > 35.4 µM.
`CN/N=C(/Cc1occc(=O)c1O)C(=O)Nc1ccccc1C` was tested, and the TGI was > 100 µM.
For `Cc1coc2c1CC1(C)C(CCC(O)C1C)C2` (stereo unspecified), the TGI was > 100 µM.
In the case of `COc1ccc2c(c1)/C(=C/c1c(C)nc3sc(C)nn13)C(=O)N2`, the GI50 is reported as 7.43 µM and the TGI is reported as > 100 µM.
`Cc1cc(I)cc(CN(C)CCCCN2CCCCC2)c1O` was tested, and the GI50 was 15.4 µM and the TGI was 31.1 µM.
With `Cc1ccc(C(=O)/C(=C/c2ccc([N+](=O)[O-])cc2)SCc2ccc(Cl)cc2)cc1` the GI50 was 4.95 µM and the TGI was 30.7 µM.
With `O=C(Nc1ccc(Cl)c(Cl)c1)Nc1ccc(Cl)c(Cl)c1` the GI50 was 3.3 µM and 2.59 µM and the TGI was 13.3 µM and 5.86 µM.
With `C#Cc1ccc(-n2c(/C=C/c3ccc(C(F)(F)F)cc3)nc3ncccc3c2=O)cc1` the GI50 was 2.19 µM and the TGI was 3.7 µM.
`COc1cc(/C=N/NC(=O)c2ccc(C(F)(F)F)nc2Nc2ccc(Cl)cc2C)ccc1O` gave a GI50 of 5.13 µM and a TGI of 17.3 µM.
`O=C(N/C(=C\c1ccc(/C=C(\NC(=O)c2ccccc2)c2nc3cc([N+](=O)[O-])ccc3[nH]2)cc1)c1nc2cc([N+](=O)[O-])ccc2[nH]1)c1ccccc1` gave a TGI of 78.5 µM.
With `COc1ccc(C(=O)Cn2c(C(=O)c3ccccc3)nc(-c3ccc(OC)cc3)c2-c2ccc(OC)cc2)cc1` the GI50 was > 100 µM and the TGI was > 100 µM.
`O=C1c2ccccc2C2C1N2C(=O)C(F)(F)F` (stereo unspecified) was tested, and the TGI was > 100 µM.
`CC1=C(C(=O)NCc2ccccc2)C(/C=C/c2ccccc2)C(C(=O)NCc2ccccc2)=C(C)N1` was tested, and the TGI was > 100 µM.
In the case of `CSc1nc2c(c(=O)[nH]1)N=C1c3ccccc3C(=O)C1C(c1ccccc1)N2` (stereo unspecified), the GI50 is reported as 73.6 µM and the TGI is reported as > 100 µM.
With `CCOC(=O)[C@]1(OC(C)=O)C[C@H](OC(C)=O)[C@@H](C(F)COP(=O)(OCc2ccccc2)OCc2ccccc2)O1` (stereo partly specified) the GI50 was 18.8 µM and > 100 µM and the TGI was 35.7 µM and > 100 µM.

These compounds were tested on SK-MEL-2 melanoma (assay: NCI-60 cell line screen, 48 h).
`COC1CCC2C(NS(=O)(=O)c3ccc(C)cc3)CCCC2O1` (stereo unspecified) (tested in a mixture with another compound) was tested, and the TGI was > 34.5 µM.
Compound `O=C1/C(=C/c2cccc([N+](=O)[O-])c2)COc2ccc(O)cc21` has a GI50 of 2.1 µM and a TGI of 5.3 µM.
`CCCCC(=O)OCC(=O)[C@]1(O)Cc2c(O)c3c(c(O)c2[C@@H](OC2CC(NC(=O)C(F)(F)F)C(O)C(C)O2)C1)C(=O)c1c(OC)cccc1C3=O` (stereo partly specified) was tested, and the TGI was 6.01 µM.
With `C[C@]12CC[C@H](O)CC1=CC[C@@H]1C2CC[C@]2(C)C(=O)N(N)C(=O)CC12` (stereo partly specified) the TGI was > 100 µM.
For `C=C(CN1CCN(c2ccc(Cl)cc2F)CC1)c1ccc(C(=O)Nc2ccccc2N)cc1`, the GI50 was 6.95 µM and the TGI was > 100 µM.
`CC(C)=CC(=O)C1c2cccc(O)c2C(=O)c2c(O)cc(C)cc21` (stereo unspecified) was tested, and the TGI was 3.6 µM.
`COC(CN1C(=O)c2cccc3cccc(c23)C1=O)OC` gave a TGI of 86.3 µM.
In the case of `O=C1C=C(Cl)C(=O)C(c2ccc(Cl)cc2)=C1`, the TGI is reported as 44.3 µM.
In the case of `Cc1ccc2c(=O)cc(-c3ccc(F)cc3)[nH]c2n1`, the TGI is reported as > 100 µM.
In the case of `CCOc1ccc(NC(=O)C(=O)CC(=O)c2c[n+](=O)c3cc(C)c(C)cc3n2[O-])cc1`, the TGI is reported as > 100 µM.
`Cn1cc(C2=C(c3cn(C)c4ncccc34)C(=O)NC2=O)c2ccccc21` was tested, and the GI50 was 6.31 µM and the TGI was 12.8 µM.
Work on `O=C1C(Cl)=C(Nc2cccc(Cl)c2)C(=O)N1Cc1ccc(Cl)cc1Cl` yielded a GI50 of 1.6 µM.
With `CC(=O)NNc1nc(C)c(C(=O)NNC(=O)C(=O)Nc2ccc(Cl)cc2)s1` the TGI was > 100 µM.
In the case of `O=C(/C=C/C12c3ccccc3C(c3ccccc31)C1C(=O)NC(=O)C12)c1ccncc1` (stereo unspecified), the GI50 is reported as 2.88 µM and the TGI is reported as 7.72 µM.
With `CC1(C)CCc2c(c3c(c4c(=O)c(O)c(-c5ccc(O)cc5)oc24)OC(C)(C)CC3)O1` the GI50 was 67.2 µM and the TGI was > 100 µM.
In the case of `CC12CCC(O)CC1CCC1C2CCC2(C)C(C3=CC(=O)OC3)CCC12O` (stereo unspecified), the TGI is reported as 22.7 µM.
For `CN/N=C(/Cc1occc(=O)c1O)C(=O)Nc1ccccc1C`, the TGI was > 100 µM.
With `Cc1coc2c1CC1(C)C(CCC(O)C1C)C2` (stereo unspecified) the TGI was > 100 µM.
`COc1ccc2c(c1)/C(=C/c1c(C)nc3sc(C)nn13)C(=O)N2` gave a GI50 of 1.29 µM and a TGI of 4.63 µM.
`Cc1cc(I)cc(CN(C)CCCCN2CCCCC2)c1O` showed a GI50 of 13.8 µM and a TGI of 29.2 µM.
In the case of `Cc1ccc(C(=O)/C(=C/c2ccc([N+](=O)[O-])cc2)SCc2ccc(Cl)cc2)cc1`, the GI50 is reported as 15.8 µM and the TGI is reported as 63.2 µM.
In the case of `O=C(Nc1ccc(Cl)c(Cl)c1)Nc1ccc(Cl)c(Cl)c1`, the GI50 is reported as 2.15 µM and the TGI is reported as 5.49 µM and 4.09 µM.
In the case of `C#Cc1ccc(-n2c(/C=C/c3ccc(C(F)(F)F)cc3)nc3ncccc3c2=O)cc1`, the GI50 is reported as 2.03 µM and the TGI is reported as 4.09 µM.
For `COc1cc(/C=N/NC(=O)c2ccc(C(F)(F)F)nc2Nc2ccc(Cl)cc2C)ccc1O`, the GI50 was 2.14 µM and the TGI was 11.9 µM.
`O=C(N/C(=C\c1ccc(/C=C(\NC(=O)c2ccccc2)c2nc3cc([N+](=O)[O-])ccc3[nH]2)cc1)c1nc2cc([N+](=O)[O-])ccc2[nH]1)c1ccccc1` was tested, and the TGI was 83.3 µM.
`COc1ccc(C(=O)Cn2c(C(=O)c3ccccc3)nc(-c3ccc(OC)cc3)c2-c2ccc(OC)cc2)cc1` was tested, and the GI50 was 66 µM and the TGI was > 100 µM.
For `O=C1c2ccccc2C2C1N2C(=O)C(F)(F)F` (stereo unspecified), the TGI was > 100 µM.
For `CC1=C(C(=O)NCc2ccccc2)C(/C=C/c2ccccc2)C(C(=O)NCc2ccccc2)=C(C)N1`, the TGI was > 100 µM.
`CSc1nc2c(c(=O)[nH]1)N=C1c3ccccc3C(=O)C1C(c1ccccc1)N2` (stereo unspecified) was tested, and the GI50 was 9.02 µM and the TGI was > 100 µM.
`CCOC(=O)[C@]1(OC(C)=O)C[C@H](OC(C)=O)[C@@H](C(F)COP(=O)(OCc2ccccc2)OCc2ccccc2)O1` (stereo partly specified) was tested, and the GI50 was 25 µM and > 100 µM and the TGI was 78.4 µM and > 100 µM.

These compounds were tested on RPMI-8226 leukemia (assay: NCI-60 cell line screen, 48 h).
`COC1CCC2C(NS(=O)(=O)c3ccc(C)cc3)CCCC2O1` (stereo unspecified) (tested in a mixture with another compound) was tested, and the TGI was 14.7 µM.
Compound `O=C1/C(=C/c2cccc([N+](=O)[O-])c2)COc2ccc(O)cc21` has a GI50 of 0.236 µM and a TGI of 0.604 µM.
Work on `CCCCC(=O)OCC(=O)[C@]1(O)Cc2c(O)c3c(c(O)c2[C@@H](OC2CC(NC(=O)C(F)(F)F)C(O)C(C)O2)C1)C(=O)c1c(OC)cccc1C3=O` (stereo partly specified) yielded a TGI of 32.7 µM.
With `C[C@]12CC[C@H](O)CC1=CC[C@@H]1C2CC[C@]2(C)C(=O)N(N)C(=O)CC12` (stereo partly specified) the TGI was > 100 µM.
Work on `C=C(CN1CCN(c2ccc(Cl)cc2F)CC1)c1ccc(C(=O)Nc2ccccc2N)cc1` yielded a GI50 of 0.628 µM and a TGI of 3.21 µM.
In the case of `CC(C)=CC(=O)C1c2cccc(O)c2C(=O)c2c(O)cc(C)cc21` (stereo unspecified), the TGI is reported as 30.4 µM.
`COC(CN1C(=O)c2cccc3cccc(c23)C1=O)OC` was tested, and the TGI was > 100 µM.
`O=C1C=C(Cl)C(=O)C(c2ccc(Cl)cc2)=C1` showed a TGI of 83.8 µM.
`Cc1ccc2c(=O)cc(-c3ccc(F)cc3)[nH]c2n1` gave a TGI of 95.1 µM.
For `CCOc1ccc(NC(=O)C(=O)CC(=O)c2c[n+](=O)c3cc(C)c(C)cc3n2[O-])cc1`, the TGI was > 100 µM.
In the case of `Cn1cc(C2=C(c3cn(C)c4ncccc34)C(=O)NC2=O)c2ccccc21`, the GI50 is reported as 9.04 µM and the TGI is reported as > 23.2 µM.
For `O=C1C(Cl)=C(Nc2cccc(Cl)c2)C(=O)N1Cc1ccc(Cl)cc1Cl`, the GI50 was 3.18 µM and the TGI was 15.4 µM.
With `CC(=O)NNc1nc(C)c(C(=O)NNC(=O)C(=O)Nc2ccc(Cl)cc2)s1` the TGI was > 100 µM.
For `O=C(/C=C/C12c3ccccc3C(c3ccccc31)C1C(=O)NC(=O)C12)c1ccncc1` (stereo unspecified), the GI50 was 2.11 µM and the TGI was 5.48 µM.
For `CC1(C)CCc2c(c3c(c4c(=O)c(O)c(-c5ccc(O)cc5)oc24)OC(C)(C)CC3)O1`, the GI50 was > 100 µM and the TGI was > 100 µM.
With `CC12CCC(O)CC1CCC1C2CCC2(C)C(C3=CC(=O)OC3)CCC12O` (stereo unspecified) the TGI was > 30 µM.
